{"source": "patent US20250172566A1", "about": "“SACCHARIDE SENSING SYSTEMS” (CARBOMETRICS LIMITED, priority 2022, published 2025)", "key": {"[1]": {"experiment": "Fluorescent solution phase glucose responsive assay (pH 7.4, 298 K)", "conditions": "Ex 560/Emmax 610 nm, medium B (10 mM PBS)", "experimental": "Fluorescence spectroscopy was performed on either a HORIBA Duetta or BMG Labtech CLARIOstar plus plate reader. Emission spectra were obtained using the appropriate excitation wavelength and at a temperature of either 298 or 310 K and at pH 7.4 unless otherwise stated. Data collection and analysis were performed using EzSpec software by HORIBA or CLARIOstar MARS software by BMG Labtech. Further analysis and processing were performed in Microsoft Excel.\nA solution of GBM and FIM at the required concentrations were created in the appropriate media. The emission spectrum of the assay was then acquired by exciting at the designated excitation wavelength to obtain the baseline emission intensity for the assay. Aliquots of 2 M D-glucose (in the same media) were then added to give the required final glucose concentrations (e.g. 15 μL of 2 M D-glucose in 3 mL gives a final D-glucose concentration of 10 mM) and the assay allowed to reach equilibration. The emission spectra were collected after each addition of D-glucose and compared to the original baseline emission, monitoring at the typical emission maximum (Emmax), and the percentage increase or decrease recorded. Emission spectra acquired on either a Horiba Duetta fluorometer or Clariostar plus plate reader.\nThe glucose responsive fluorescence emission for different combinations of glucose binding molecules (GBM) and fluorescent inhibitor molecules (FIM) at various concentrations and in various media was tested as described above. All results obtained at pH 7.4 and 298 K unless otherwise stated.\nAll results obtained at pH 7.4 and 298 K unless otherwise stated.\nTable 4 provides the composition of the assay media used as the code assigned to each media as used in Tables 1 to 3."}, "[2]": {"experiment": "Fluorescence lifetime glucose responsive assay (10 mM PBS, pH 7.4, 298 K)", "conditions": "FIM 10 uM, Ex 450 nm"}, "[3]": {"experiment": "Fluorescent hydrogel phase glucose responsive assay (10 mM PBS, pH 7.4, 310 K)", "conditions": "20 mM D-glucose, GBM2 10 uM, FIM 1 uM", "experimental": "The fluorescence spectrum of the corresponding hydrogel, already swollen in 200 μL of 10 mM PBS, in a well plate was recorded by exciting at the designated excitation frequency and monitoring at the typical emission maximum (Emmax). The PBS top solution was removed either by micropipette or by decanting onto an absorbent material. A 200 μL solution of D-glucose (in 10 mM PBS) at the required concentration was added to each hydrogel in the well plate and the system allowed to reach equilibrium. The emission spectra for each well were collected after this and compared to the original baseline emission, monitoring at the typical emission maximum (Emmax), and the percentage increase or decrease recorded. The change in emission was recorded for each hydrogel in the well plate (up to 96 individual hydrogel sensors) or an average of all wells was used. The hydrogel bound assays were then investigated for reproducibility by cycling with solutions of PBS or D-glucose. This was achieved by removal of the previous top solution (e.g. D-glucose) by micropipette or decanting onto an absorbent material and replacing with another solution (e.g. 10 mM PBS). […] Emission spectra acquired using a Clariostar plus plate reader.\n(§1) Hydroxyethylmethacrylate (2.85 g), TEGDMA (0.15 g), VAZO-44 (0.12 mg), ethylene glycol (1.06 g) and water (1.33 g) were added to a glass vial and vortexed/sonicated until a homogeneous solution. Concentrated aliquots (<50 μL) of the appropriate GBM and FIM from pre-made stock solutions were added to give the required final concentrations of GBM and FIM (i.e. 50 μL of GBM stock solution at 1 mM gives a final GBM concentration of 10 μM in the pre-gel solution). A 50 μL aliquot of this GBM and FIM containing pre-gel solution was pipetted into each well of a transparent flat-bottomed polystyrene 96 well plate. 100 μL of n-butanol was layered on top of the pre-gel solution in each well plate and each well plate covered with a loose transparent well plate lid. The well plate was then placed in a nitrogen flushed desiccator, which was then placed into a pre-heated oven at 45° C. for 4 hours. The well plates were then removed from the oven, allowed to cool to RT and the top solution removed by decanting onto an absorbent material. The hydrogels were then washed and swelled by submerging in one litre of pure water or 10 mM PBS for 24 hours. Each well within the well plate containing hydrogel bound assay was then washed with D-glucose (50 mM) and then 10 mM PBS multiple times until the observed fluorescence emission stabilised to give a baseline emission value in 10 mM PBS. These hydrogels were then used for determining assay performance and reversibility studies.\nas §1, with “(1.95” for “(2.85”, “PEGDA (0.57” for “TEGDMA (0.15”, “(0.04” for “(0.12”, “200 mM methyl-p-D-glucopyranoside (aqueous, 1.39” for “water (1.33”, “FIM.” for “FIM (i.e. 50 μL of GBM stock solution at 1 mM gives a final GBM concentration of 10 μM in the pre-gel solution).”, “hours.” for “hours. Each well within the well plate containing hydrogel bound assay was then washed with D-glucose (50 mM) and then 10 mM PBS multiple times until the observed fluorescence emission stabilised to give a baseline emission value in 10 mM PBS. These hydrogels were then used for determining assay performance and reversibility studies.”"}, "[4]": {"conditions": "Ex 470/Emmax 530 nm, hydrogel A (HEMA/TEGDMA)"}, "[5]": {"conditions": "Ex 470/Emmax 530 nm, hydrogel C (polyacrylamide/bis-acrylamide)"}}, "data": [{"smiles": "CN1c2cc3c(cc2C(CS(=O)(=O)[O-])=CC1(C)C)C(c1ccc(C(=O)NCc2cn(CCOCCOCCOCCNC(=O)[C@H](Cc4cn(CCOCCOCCOCCOc5ccc(CCO[C@@H]6O[C@H](CO)[C@@H](O)[C@H](O)[C@H]6O)cc5)nn4)NC(=O)OC(C)(C)C)nn2)cc1C(=O)[O-])=c1cc2c(cc1O3)=[N+](C)C(C)(C)C=C2CS(=O)(=O)[O-].[Na+].[Na+]", "note": "[FIM10]", "values": [{"measurement": "Change in Emmax for FIM at a particular D-glucose concentration", "setting": "[1]; 5 mM D-glucose, GBM42 20 uM, FIM 5 uM", "result": 65, "unit": "%"}, {"measurement": "Change in Emmax for FIM at a particular D-glucose concentration", "setting": "[1]; 10 mM D-glucose, GBM42 20 uM, FIM 5 uM", "result": 85, "unit": "%"}, {"measurement": "Change in Emmax for FIM at a particular D-glucose concentration", "setting": "[1]; 20 mM D-glucose, GBM42 20 uM, FIM 5 uM", "result": 105, "unit": "%"}, {"measurement": "Change in Emmax for FIM at a particular D-glucose concentration", "setting": "[1]; 40 mM D-glucose, GBM40 5 uM, FIM 10 uM", "result": "−75", "unit": "%"}, {"measurement": "Change in Emmax for FIM at a particular D-glucose concentration", "setting": "[1]; 40 mM D-glucose, GBM42 20 uM, FIM 5 uM", "result": 110, "unit": "%"}, {"measurement": "Fluorescence lifetime component τ1 for FIM and GBM at a particular glucose concentration", "setting": "[2]; 20 mM glucose, GBM40 5 uM", "result": 580, "unit": "ns"}, {"measurement": "Lifetime component τ1 of FIM only", "setting": "[2]", "result": 575, "unit": "ns"}, {"measurement": "Lifetime component τ1 of FIM after GBM addition", "setting": "[2]; GBM40 5 uM", "result": 620, "unit": "ns"}]}, {"smiles": "C=CC(=O)NCCOCCOCCOCCOCCOCCOCCC(=O)NCCCC[C@@H](C(=O)Nc1ccc(CCO[C@@H]2O[C@H](CO)[C@@H](O)[C@H](O)[C@H]2O)cc1)n1cc(CNC(=O)c2ccc(C(=O)O)c(-c3c4cc(C)c(=NCC)cc-4oc4cc(NCC)c(C)cc34)c2)nn1", "note": "[FIM16]", "values": [{"measurement": "Change in Emmax for FIM at a particular D-glucose concentration", "setting": "[3]; Ex 515/Emmax 550 nm, hydrogel A (HEMA/TEGDMA)", "result": 45, "unit": "%"}, {"measurement": "Change in Emmax for FIM at a particular D-glucose concentration", "setting": "[3]; Ex 515/Emmax 550 nm, hydrogel C (polyacrylamide/bis-acrylamide)", "result": 50, "unit": "%"}]}, {"smiles": "C=CC(=O)NC(Cc1cn(CCOCCOc2ccc(CCO[C@@H]3O[C@H](CO)[C@@H](O)[C@H](O)[C@H]3O)cc2)nn1)C(=O)Nc1ccc2c(c1)C(=O)OC21c2ccc(O)cc2Oc2cc(O)ccc21", "note": "(some centres unmarked) [FIM21]", "values": [{"measurement": "Change in Emmax for FIM at a particular D-glucose concentration", "setting": "[3]; [4]", "result": 0, "unit": "%"}]}, {"smiles": "C=CC(=O)NCCCC[C@@H](C(=O)Nc1ccc2c(c1)C(=O)OC21c2ccc(O)cc2Oc2cc(O)ccc21)n1cc(-c2ccc(CCO[C@@H]3O[C@H](CO)[C@@H](O)[C@H](O)[C@H]3O)cc2)nn1", "note": "[FIM22]", "values": [{"measurement": "Change in Emmax for FIM at a particular D-glucose concentration", "setting": "[3]; [4]", "result": 10, "unit": "%"}, {"measurement": "Change in Emmax for FIM at a particular D-glucose concentration", "setting": "[3]; [5]", "result": 15, "unit": "%"}]}, {"smiles": "C=CC(=O)NCCOCCOCCOCCOCCOCCOCCC(=O)NCCCC[C@@H](C(=O)Nc1ccc(CCO[C@@H]2O[C@H](CO)[C@@H](O)[C@H](O)[C@H]2O)cc1)n1cc(CNC(=O)c2ccc3c(c2)C(=O)OC32c3ccc(O)cc3Oc3cc(O)ccc32)nn1", "note": "[FIM23]", "values": [{"measurement": "Change in Emmax for FIM at a particular D-glucose concentration", "setting": "[3]; [4]", "result": 10, "unit": "%"}, {"measurement": "Change in Emmax for FIM at a particular D-glucose concentration", "setting": "[3]; [5]", "result": 15, "unit": "%"}]}, {"smiles": "C=CC(=O)NCCOCCOCCOCCOCCOCCOCCC(=O)NCCCC[C@@H](C(=O)Nc1ccc2c(c1)C(=O)OC21c2ccc(O)cc2Oc2cc(O)ccc21)n1cc(-c2ccc(CCO[C@@H]3O[C@H](CO)[C@@H](O)[C@H](O)[C@H]3O)cc2)nn1", "note": "[FIM24]", "values": [{"measurement": "Change in Emmax for FIM at a particular D-glucose concentration", "setting": "[3]; [4]", "result": 8, "unit": "%"}]}, {"smiles": "C=CC(=O)NCCOCCOCCOCCOCCOCCOCCC(=O)NCCCC[C@@H](C(=O)Nc1ccc2c(c1)C(=O)OC21c2ccc(O)cc2Oc2cc(O)ccc21)n1cc(-c2ccc(CCO[C@@H]3O[C@H](C(=O)O)[C@@H](O)[C@H](O)[C@H]3O)cc2)nn1", "note": "[FIM25]", "values": [{"measurement": "Change in Emmax for FIM at a particular D-glucose concentration", "setting": "[3]; [4]", "result": 12, "unit": "%"}]}]}
